Laboratory results as given in patent publication US12558317B2, “Compositions and methods for treating disorders ameliorated by muscarinic receptor activation” (Karuna Therapeutics, Inc., priority 2018, dated 2026).

Key:
[1] = system: normal healthy volunteers; assay: KAR-001 Phase I study: safety and tolerability, cholinergic adverse events; format: in vivo, human
[2] = KAR-001 Phase I study: xanomeline pharmacokinetics; settings: human, in vivo, 225 mg daily; for AUC / Cmax: oral, geometric mean; for AUC: Xanomeline AUC0-tau; for Cmax: Xanomeline Cmax
Protocol: A Phase I, double-blind, randomized multiple-dose pilot study was conducted with xanomeline administered alone compared to xanomeline administered with trospium chloride in normal healthy volunteers. […]

[3] = 26-week study of Alzheimer's disease; cited from earlier work
[4] = Mutagenic potential
[5] = KAR-001 Safety Population, cholinergic TEAE, number of individual occurrences
[6] = KAR-001 Safety Population, cholinergic TEAE, number of subjects
[7] = KAR-001 Safety Population, cholinergic TEAE, percentage of subjects in arm

CCCCCCOc1nsnc1C1=CCCN(C)C1 [xanomeline]
AE leading to discontinuation (D/C), # events ([1]; KAR-001): 2 | AE leading to discontinuation (D/C), % ([1]; KAR-001): 6.1% | Any SAE, % ([1]; KAR-001): (0.0) % | Any clinically significant TEAE, # events ([1]; KAR-001): 5 | Any clinically significant TEAE, % ([1]; KAR-001): 15.2% | Any study drug-related TEAE, # events ([1]; KAR-001): 92 | Any study drug-related TEAE, % ([1]; KAR-001): 69.7% | Diarrhea, # of events ([1]; KAR-001): 8 | Diarrhea, % of subjects ([1]; KAR-001): 21.2% | Diarrhea, n subjects ([1]; KAR-001): 7 | Max Severity of TEAE: Mild, % ([1]; KAR-001): (66.7) N/A % | Max Severity of TEAE: Moderate, % ([1]; KAR-001): (15.2) N/A % | Max Severity of TEAE: Severe, % ([1]; KAR-001): (0.0) % | Max severity of study drug-related TEAE: Mild, % ([1]; KAR-001): (57/6) N/A | Max severity of study drug-related TEAE: Moderate, % ([1]; KAR-001): (12.1) N/A % | Max severity of study drug-related TEAE: Severe, % ([1]; KAR-001): (0.0) N/A % | Nausea, # of events ([1]; KAR-001): 11 | Nausea, % of subjects ([1]; KAR-001): 24.2% | Nausea, n subjects ([1]; KAR-001): 8 | Salivation (salivary hypersecretion), % of subjects ([1]; KAR-001): 36.4% | Salivation, # of events ([1]; KAR-001): 16 | Salivation, n subjects ([1]; KAR-001): 12 | Study drug related AE leading to D/C, # events ([1]; KAR-001): 1 | Study drug related AE leading to D/C, % ([1]; KAR-001): 3.0% | Subjects with any TEAE, # events ([1]; KAR-001): 108 | Subjects with any TEAE, % ([1]; KAR-001): 81.8% | Sweating (hyperhidrosis), % of subjects ([1]; KAR-001): 48.5% | Sweating, # of events ([1]; KAR-001): 24 | Sweating, n subjects ([1]; KAR-001): 16 | Vomiting, # of events ([1]; KAR-001): 5 | Vomiting, % of subjects ([1]; KAR-001): 15.2% | Vomiting, n subjects ([1]; KAR-001): 5 | Cholinergic adverse events: Any TEAEs, # of events ([1]; KAR-001, healthy volunteers): 64 | Cholinergic adverse events: Any TEAEs, n subjects ([1]; KAR-001, healthy volunteers): 21 | Cholinergic adverse events: Any TEAEs, % of subjects ([1]; KAR-001, healthy volunteers, listed as Xanomeline + placebo): 63.6% | Cholinergic adverse events: Any TEAEs, % of subjects ([1]; KAR-001, healthy volunteers, listed as xanomeline+placebo): 63% | Diarrhea, # occurrences [1, 5]: 8 | Gastrointestinal disorders, # occurrences [1, 5]: 40 | Hyperhidrosis, # occurrences [1, 5]: 24 | Nausea, # occurrences [1, 5]: 11 | Salivary hypersecretion, # occurrences [1, 5]: 16 | Skin and subcutaneous tissue disorders, # occurrences [1, 5]: 24 | Vomiting, # occurrences [1, 5]: 5 | Diarrhea, n subjects [1, 6]: 7 | Gastrointestinal disorders, n subjects [1, 6]: 18 | Hyperhidrosis, n subjects [1, 6]: 16 | Nausea, n subjects [1, 6]: 8 | Salivary hypersecretion, n subjects [1, 6]: 12 | Skin and subcutaneous tissue disorders, n subjects [1, 6]: 16 | Vomiting, n subjects [1, 6]: 5 | Diarrhea, % of subjects [1, 7]: 20.6% | Gastrointestinal disorders, % of subjects [1, 7]: 52.9% | Hyperhidrosis, % of subjects [1, 7]: 47.1% | Nausea, % of subjects [1, 7]: 23.5% | Salivary hypersecretion, % of subjects [1, 7]: 35.3% | Skin and subcutaneous tissue disorders, % of subjects [1, 7]: 47.1% | Vomiting, % of subjects [1, 7]: 14.7% | Subjects with any TEAEs (cholinergic), # occurrences ([1]; KAR-001 Safety Population, number of individual occurrences): 64 | Subjects with any TEAEs (cholinergic), n subjects ([1]; KAR-001 Safety Population, number of subjects): 21 | Subjects with any TEAEs (cholinergic), % of subjects ([1]; KAR-001 Safety Population, percentage of subjects in arm): 61.8% | Tmax ([2]; KAR-001 Day 3, median): 2 h | AUC ([2]; KAR-001 Day 3): 12.6 ng·h/mL | AUC ([2]; KAR-001 Day 9): 24.8 ng·h/mL | Cmax ([2]; KAR-001 Day 3): 2.95 ng/mL | Cmax ([2]; KAR-001 Day 9): 4.57 ng/mL | dropout rate [3]: 56%

CCCCCCOc1nsnc1-c1ccc[n+](C)c1 [Compound V]
mutagenic potential [4]: negative
